From paper PMC5995566 (Biochemistry, 2017)
No end group written: not given here.

How the values were obtained:
human S100A5 (hA5) = biological target: T1, human S100A5 (hA5) (Homo sapiens, UniProt P33763); experiment: ITC of peptide binding to human S100A5; settings: 2 mM CaCl2, pH 7.4
T1 sequence (P33763 1-92): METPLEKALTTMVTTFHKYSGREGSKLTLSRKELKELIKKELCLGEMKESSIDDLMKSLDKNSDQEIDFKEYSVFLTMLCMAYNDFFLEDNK

S100A6 orthologs = experiment: ITC of peptide binding to S100A6 orthologs; settings: 2 mM CaCl2, pH 7.4
human S100A6 (hA6) = human S100A6 (hA6) (Homo sapiens, UniProt P06703); experiment: ITC of peptide binding to human S100A6; settings: single-site model
hA5 A83m = experiment: ITC of peptide binding to hA5 A83m mutant; set-up: species or system Homo sapiens; settings: single ancestral reversion in hA5
[1] = test system: ancA6 (last common ancestor of S100A6 orthologs); experiment: ITC of peptide binding to reconstructed ancestor ancA6

binding to hA5 (in words) (human S100A5 (hA5)): did not bind
binding to all S100A6 orthologs (in words) (S100A6 orthologs): bound
fx comp (human S100A6 (hA6); ITC fit parameter, same buffer): 1.5 ± 0.1
ΔH° (human S100A6 (hA6); ITC, 25 mM TES, 100 mM NaCl, 2 mM CaCl2, 1 mM TCEP, pH 7.4, Bayesian fit): 2.9 ± 0.3 kcal/mol
binding to hA5 A83m (in words) (hA5 A83m): enabled it to bind
binding to ancA6 (in words) [1]: binding
Sequence: SEGLMNVLKKIYEDGDDDMKRTINKAWVESR [SIP]
